From patent publication US8772495B2, “5-lipoxygenase-activating protein inhibitor” (Panmira Pharmaceuticals, LLC, priority 2008, dated 2014)
Entries after “also recorded” stand apart in the source; their conditions may differ. Like-named read-outs stand apart in the source and are kept apart here. One block for each compound: values may come before it.

Columns and labels:
CYP2C19 = CYP2C19 (Homo sapiens (Human), UniProt P33261); experiment: Extracellular cytochrome P450 inhibition (microsomes); assay type: in vitro ADME; conditions: mephenytoin 4′-hydroxylation
Text: Final solvent concentrations were 1% (v/v) or less.

[1] = Physical and chemical stability of polymorphs (storage, humidity chamber); assay type: physicochemical; conditions: for XRPD pattern after one week stability study: 40° C. and 75% RH, one week in humidity chamber
[2] = Oral dosing of amorphous phase A and Form C in rats; assay type: in vivo
[3] = Thermodynamic aqueous solubility by HPLC; assay type: physicochemical; conditions: water, 25° C.
Method: The suspension was equilibrated at 25° C. for 24 hours then the pH was measured. The suspension was then filtered through a glass fibre C filter into a 96 well plate. […] Quantitation was by HPLC with reference to a standard solution of approximately 0.1 mg.ml^−1 in DMSO. Different volumes of the standard, diluted and undiluted sample solutions were injected.
Analysis was performed on an Agilent HP1100 series system equipped with a diode array detector and using ChemStation software vB.02.01-SR1.

[4] = Gravimetric vapour sorption (GVS); assay type: physicochemical; conditions: for XRPD pattern after the GVS experiment: after full sorption/desorption cycle; for water adsorbed (GVS): at 90% RH
Method: Sorption isotherms were obtained using a Hiden IGASorp moisture sorption analyser, controlled by CFRSorp software. The sample temperature was maintained at 25° C. by a Huber re-circulating water bath. The humidity was controlled by mixing streams of dry and wet nitrogen, with a total flow rate of 250 ml. min^−1. The relative humidity was measured by a calibrated Vaisala RH probe (dynamic range of 0-95% RH), located near the sample. The weight change, (mass relaxation) of the sample as a function of % RH was constantly monitored by the microbalance (accuracy ±0.001 mg).
Typically 10-20 mg of sample was placed in a tared mesh stainless steel basket under ambient conditions. The sample was loaded and unloaded at 40% RH and 25° C. (typical room conditions).
A moisture sorption isotherm was performed as outlined below (2 scans giving 1 complete cycle). The standard isotherm was performed at 25° C. at 10% RH intervals over a 0-90% RH range.
The software uses a least squares minimisation procedure together with a model of the mass relaxation, to predict an asymptotic value. The measured mass relaxation value must be within 5% of that predicted by the software, before the next % RH value is selected. The minimum equilibration time was set to 1 hour and the maximum to 4 hours.

[5] = Liquid formulations for oral solutions/suspensions; assay type: physicochemical; conditions: below pH values of about 9-10
Method: Values of pH reported were estimated based on pH indicating strips. […] Accordingly, provided in certain embodiments herein were formulations having a pH above about 9, above about 10 or of about 10. In certain embodiments, the formulation was buffered at a pH of about 10. All formulations prepared were sonicated for about 10 minutes.

[6] = tested on: whole blood ionophore-stimulated leukotriene LTB4; experiment: Phase I study: ex vivo ionophore-stimulated LTB4; assay type: in vivo, human; conditions: in vivo
Text: Study Design: Single center, double-blind, randomized, placebo-controlled, single ascending dose followed by multiple ascending dose study.
Sample Size: (1) Single Dose Phase: eight (8) subjects (6 active, 2 placebo) per dose level; up to 5 dose levels are planned (a total of 40 subjects if all 5 dose levels are completed); and (2) Multiple Dose Phase: eight (8) subjects (6 active, 2 placebo) per dose level; up to 4 dose levels are planned (a total of 32 subjects if all 4 dose levels are completed).
Formulations: Compound 2 was supplied as an oral powder for reconstitution. Placebo solution matched. […] The placebo differed only in the absence of the active.
The following dosing cohorts were used:
Routes of Administration: All doses were administered orally with approximately 100 mL of water rinse. Subjects were fasted for at least 8 hours prior to dosing and for 2 hours after dosing. For BID dosing in the Multiple Dose Phase, when applicable, subjects were fasted for at least 2 hours prior to the second daily dose.
Plasma concentrations of Compound 1 were determined using a validated LC/MS method. Whole blood ionophore-stimulated leukotriene LTB4 and urinary LTE4 production were assayed by ELISA and mass spectrometry, respectively.
Analysis of Samples: Concentrations of Compound 1 was determined in plasma samples collected from subjects. Similarly, concentrations of LTB4 in plasma and urinary LTE4 were determined in blood and urine samples collected.

[7] = female, CD-1, mouse, in vivo, po, 250 mg/kg/day, 4 days
Method: Twenty-four hours following the final drug administration mice were placed into an enclosed Plexiglas chamber and exposed to CO2 for a period of 30-60 seconds or until breathing ceased. They were then removed subject to cervical dislocation and blood taken via a cardiac puncture. Mice were next placed in a supine position and a midline incision made. All organs were inspected and the livers removed by careful dissection. Liver weights were recorded as well as any gross abnormalities.

CYP2C19, sequence (P33261 whole entry): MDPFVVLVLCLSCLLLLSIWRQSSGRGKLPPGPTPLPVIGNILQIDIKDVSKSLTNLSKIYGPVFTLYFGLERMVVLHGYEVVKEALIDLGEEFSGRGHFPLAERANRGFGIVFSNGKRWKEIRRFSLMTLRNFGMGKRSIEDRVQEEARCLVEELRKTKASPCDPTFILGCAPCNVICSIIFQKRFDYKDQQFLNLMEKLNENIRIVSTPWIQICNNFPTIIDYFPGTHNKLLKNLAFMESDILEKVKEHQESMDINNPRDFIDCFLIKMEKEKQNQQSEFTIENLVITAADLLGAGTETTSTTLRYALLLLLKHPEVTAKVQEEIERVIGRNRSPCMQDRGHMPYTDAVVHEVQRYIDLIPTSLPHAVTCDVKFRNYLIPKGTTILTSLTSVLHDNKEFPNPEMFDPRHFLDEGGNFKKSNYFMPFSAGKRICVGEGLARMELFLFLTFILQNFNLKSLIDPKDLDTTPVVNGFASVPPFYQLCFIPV

SMILES: CCC1(c2ccccc2)C(=O)NC(=O)N(Cc2ccccc2)C1=O (single isomer, unassigned; (-)) [(−)-N-3-benzyl-phenobarbital, reference compound]
IC50 (CYP2C19): 2.8 µM

SMILES: CCOc1ccc(-c2ccc(Cn3c(CC(C)(C)C(=O)[O-])c(SC(C)(C)C)c4cc(OCc5ccc(C)cn5)ccc43)cc2)cn1.[Na+] [Amorphous Phase A, sodium 3-[3-(tert-butylsulfanyl)-1-[4-(6-ethoxy-pyridin-3-yl)benzyl]-5-(5-methyl-pyridin-2-yl-methoxy)-1H-indol-2-yl]-2,2-dimethylpropionate]
XRPD pattern after one week stability study [1]: remains amorphous | physical and chemical stability ([1]; listed as Amphorous Phase A): chemically stable | plasma exposures after oral dosing [2]: equivalent plasma exposures | Concentration of filtrate ([3]; 24 hours): >10 mg/mL of free base | Appearance of mixture after equilibration for 24 hours ([3]; listed as Compound 2 Phase A): Suspension | pH of unfiltered saturated solution ([3]; listed as Compound 2 Phase A): 9.14 | hygroscopicity [4]: hygroscopic | XRPD pattern after the GVS experiment [4]: No changes were observed | water adsorbed (GVS) [4]: more than 22% | water adsorbed (GVS) ([4]; listed as Amphorous Phase A): more than 20% | hygroscopicity ([4]; listed as Amphorous Phase A): hygroscopic

SMILES: CCOc1ccc(-c2ccc(Cn3c(CC(C)(C)C(=O)O)c(SC(C)(C)C)c4cc(OCc5ccc(C)cn5)ccc43)cc2)cn1 [Compound 1, 3-[3-(tert-butylsulfanyl)-1-[4-(6-ethoxy-pyridin-3-yl)benzyl]-5-(5-methyl-pyridin-2-yl-methoxy)-1H-indol-2-yl]-2,2-dimethylpropanoic acid]
solubility in certain solvent systems [5]: sparingly soluble | plasma concentration at complete inhibition of ionophore-stimulated LTB4 production [6]: 1000 to 1500 ng/mL

Further lines, with some results ahead:

physical and chemical stability [1]: physically and chemically stable | hygroscopicity [4]: hygroscopic | XRPD pattern after the GVS experiment ([4]; listed as Polymorph Form B): becomes almost totally amorphous | water adsorbed (GVS) [4]: more than 30% | water adsorbed (GVS) ([4]; listed as Polymorph Form B): more than 30% | hygroscopicity ([4]; listed as Polymorph Form B): hygroscopic
SMILES: CCOc1ccc(-c2ccc(Cn3c(CC(C)(C)C(=O)[O-])c(SC(C)(C)C)c4cc(OCc5ccc(C)cn5)ccc43)cc2)cn1.[Na+] [Solvated Form B, sodium 3-[3-(tert-butylsulfanyl)-1-[4-(6-ethoxy-pyridin-3-yl)benzyl]-5-(5-methyl-pyridin-2-yl-methoxy)-1H-indol-2-yl]-2,2-dimethylpropionate]

physical and chemical stability [1]: physically and chemically stable | physical and chemical stability ([1]; 5° C., 25° C./60% RH and 40° C./75% RH for at least one month): physically and chemically stable | XRPD pattern after one week stability study ([1]; listed as polymorph Form C): remains unchanged | plasma exposures after oral dosing [2]: equivalent plasma exposures | XRPD pattern after the GVS experiment ([4]; listed as polymorph Form C): No changes were observed | water adsorbed (GVS) [4]: < 9% | water adsorbed (GVS) ([4]; listed as polymorph Form C): 8.2%
SMILES: CCOc1ccc(-c2ccc(Cn3c(CC(C)(C)C(=O)[O-])c(SC(C)(C)C)c4cc(OCc5ccc(C)cn5)ccc43)cc2)cn1.[Na+] [Form C, sodium 3-[3-(tert-butylsulfanyl)-1-[4-(6-ethoxy-pyridin-3-yl)benzyl]-5-(5-methyl-pyridin-2-yl-methoxy)-1H-indol-2-yl]-2,2-dimethylpropionate]
hygroscopicity [4]: non-hygroscopic; also recorded: nonhygroscopic | hygroscopicity ([4]; listed as polymorph Form C): significantly less hygroscopic than the amorphous material

Liver weight [7]: 1.6 ± 0.2 | liver weight change as compared to vehicle control [7]: 31.0%
SMILES: CC(c1cc2ccccc2s1)N(O)C(N)=O (centres unmarked) [Zileuton, zileuton, reference compound]
Liver weight (% body weight) [7]: 5.5 % body weight
